These results are taken from patent US20230212129A1, “QUINAZOLINE DERIVATIVES USEFUL AS SELECTIVE HDAC6 INHIBITORS” (AnnJi Pharmaceutical Co., Ltd., priority 2020, published 2023).

Series [1] deals with acetylated α-tubulin (Ac-α-tub). As to the kind of experiment: Western blot of acetylated α-tubulin in primary DRG cells. The settings on record: 48 hours of treatment, FIG. 2. Type of series: cell-based, C57BL/6J mice. How it is done: (§1) To investigate the effect of HDAC6 inhibitors in neuron protection and neuron regeneration, the recovery of dorsal root ganglion (DRG) cells post-paclitaxel injury was tested. Dorsal root ganglion was extracted from 7 week-old female C57BL/6J mice and incubated with HDAC6 inhibitors (compounds COMPOUND 33, COMPOUND 34, or COMPOUND 2) at the concentrations of 0.1 μM and 1 μM, or 100 ng/ml of BDNF, a neuronal growth factor (positive control), for 24 hours prior to a 24-hour incubation of 0.1 μM paclitaxel.
On the technique in general: In western blotting, separated proteins are transferred to a membrane and probed.

For series [2], the system named is dorsal root ganglion (DRG) cells. As to the kind of experiment: DRG neurite outgrowth after paclitaxel-induced damage. To be noted: 0.1 μM and 1 μM, 24 hours prior to 24-hour 0.1 μM paclitaxel; FIG. 1. The format is cell-based, C57BL/6J mice. Here is the method:
as §1
The neurite was stained by pIII-tubulin.

Series [3] can be described thus: Oral pharmacokinetics (Table II). Set-up: AUC: concentration or dose not given beside the values. The settings on record: in vivo; for AUC: unit inferred.
A further series addresses T1, HDAC1 (Homo sapiens, UniProt Q13547).
T1 construct: GST (C); host or cells: baculovirus expression system, Sf9 insect cells (SP9 [sic])
As to the kind of experiment: HDAC1 activity, acetylated-AMC-labeled peptide substrate. Type of series: biochemical. How it is done: (§2) The activities of HDAC 1 and 6 were measured by using an acetylated-AMC-labeled peptide substrate, a fluorogenic peptide from p53 residues 379-382 (RHIKKAc). The proteins involved in the assay are as the followings (1) Human HIDAC1 (Genflank Accession No. NM_004964): Full length with C-terminal GST tag, MW=79.9 kDa, expressed by baculovirus expression system in SP9 cells; and (2) Human HIDAC6 (Genflank Accession No. BC069243): Full length with N-terminal GST tag, MW=159 kDa, expressed by baculovirus expression system in Sf9 cells.

The next series addresses T2, HDAC6 (Homo sapiens, UniProt Q9UBN7).
T2 construct: GST (N); host or cells: baculovirus expression system, Sf9 insect cells
T2 sequence (Q9UBN7 1-1215): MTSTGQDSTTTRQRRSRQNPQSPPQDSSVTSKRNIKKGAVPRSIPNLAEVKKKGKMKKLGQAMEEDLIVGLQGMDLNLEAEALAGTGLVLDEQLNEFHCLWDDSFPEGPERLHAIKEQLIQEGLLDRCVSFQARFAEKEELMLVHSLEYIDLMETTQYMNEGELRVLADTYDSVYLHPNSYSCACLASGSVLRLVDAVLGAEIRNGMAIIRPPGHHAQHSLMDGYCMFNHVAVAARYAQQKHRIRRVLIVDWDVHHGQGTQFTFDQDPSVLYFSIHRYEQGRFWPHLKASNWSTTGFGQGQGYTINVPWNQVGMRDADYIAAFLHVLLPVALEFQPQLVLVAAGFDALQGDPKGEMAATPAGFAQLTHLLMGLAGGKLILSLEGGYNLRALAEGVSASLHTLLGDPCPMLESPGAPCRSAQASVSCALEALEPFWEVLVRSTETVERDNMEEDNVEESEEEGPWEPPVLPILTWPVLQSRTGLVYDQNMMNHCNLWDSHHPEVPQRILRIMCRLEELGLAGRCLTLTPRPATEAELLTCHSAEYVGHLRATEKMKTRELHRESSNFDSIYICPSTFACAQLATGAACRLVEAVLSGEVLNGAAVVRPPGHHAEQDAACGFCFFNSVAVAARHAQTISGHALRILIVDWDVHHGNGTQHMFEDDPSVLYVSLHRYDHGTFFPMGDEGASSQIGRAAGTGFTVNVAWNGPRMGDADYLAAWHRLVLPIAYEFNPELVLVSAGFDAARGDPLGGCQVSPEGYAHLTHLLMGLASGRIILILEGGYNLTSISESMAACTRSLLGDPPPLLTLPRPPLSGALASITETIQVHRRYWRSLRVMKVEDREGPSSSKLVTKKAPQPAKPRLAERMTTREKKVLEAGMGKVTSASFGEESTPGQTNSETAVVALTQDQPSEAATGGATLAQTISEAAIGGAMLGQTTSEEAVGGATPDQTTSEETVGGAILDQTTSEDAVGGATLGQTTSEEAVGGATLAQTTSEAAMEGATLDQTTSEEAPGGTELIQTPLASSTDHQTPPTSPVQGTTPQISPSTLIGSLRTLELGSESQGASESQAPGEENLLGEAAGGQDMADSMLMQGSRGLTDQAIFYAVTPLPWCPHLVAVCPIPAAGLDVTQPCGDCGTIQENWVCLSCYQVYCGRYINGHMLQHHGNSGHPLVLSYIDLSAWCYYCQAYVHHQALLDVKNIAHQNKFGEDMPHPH
As to the kind of experiment: HDAC6 activity, acetylated-AMC-labeled peptide substrate. The format is biochemical. To be noted: for HDAC6 selectivity (A)/(B): HDAC1 IC50 / HDAC6 IC50; for IC50: read-out: HDAC6 IC50 (B). How it is done: as §2

T1 sequence (Q13547 whole entry): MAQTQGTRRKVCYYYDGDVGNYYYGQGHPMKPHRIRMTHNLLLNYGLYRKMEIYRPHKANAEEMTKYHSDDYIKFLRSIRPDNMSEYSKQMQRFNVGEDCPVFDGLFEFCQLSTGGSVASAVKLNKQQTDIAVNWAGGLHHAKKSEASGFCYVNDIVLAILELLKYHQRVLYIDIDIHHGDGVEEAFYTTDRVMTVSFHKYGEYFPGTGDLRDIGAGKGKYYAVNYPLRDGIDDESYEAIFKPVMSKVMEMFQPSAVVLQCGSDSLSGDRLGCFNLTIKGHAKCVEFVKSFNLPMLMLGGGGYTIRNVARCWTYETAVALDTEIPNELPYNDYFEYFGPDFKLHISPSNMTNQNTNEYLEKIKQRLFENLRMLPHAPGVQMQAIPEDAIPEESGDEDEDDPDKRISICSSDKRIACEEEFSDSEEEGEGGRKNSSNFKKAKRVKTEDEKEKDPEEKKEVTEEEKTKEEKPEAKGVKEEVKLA

As to `CCc1nc2cc(F)c(/C=C/C(=O)NO)cc2c(=O)n1-c1ccc(OC)cc1C` [Compound 34, (E)-3-(2-ethyl-7-fluoro-3-(4-methoxy-2-methylphenyl)-4-oxo-3,4-dihydroquinazolin-6-yl)-N-hydroxyacrylamide], the tubulin hyperacetylation entry in series [1] is given as “tubulin hyperacetylation”. For the same compound, in series [2], the neurite outgrowth result was “significantly rescued the neurite outgrowth”. For the same compound, in series [3], the highest level (Cmax) was 873 ng/mL and the AUC is 11000 ng·h/mL. The same compound showed a 50% inhibitory concentration (IC50) against HDAC1 of 4550 nM. Further, on HDAC6, the “HDAC6 selectivity (A)/(B)” value came to 175 and the IC50 was 26 nM.

In series [3], `CCc1nc2cc(F)c(/C=C/C(=O)NO)cc2c(=O)n1-c1ccc(Br)cc1C` [Compound 6, (E)-3-(3-(4-bromo-2-methylphenyl)-2-ethyl-7-fluoro-4-oxo-3,4-dihydroquinazolin-6-yl)-N-hydroxyacrylamide] yielded a Cmax of 3630 ng/mL and an AUC of 42600 ng·h/mL. Further, the half-maximal inhibitory concentration (IC50) against HDAC1 was determined as 5100 nM. On HDAC6, the “HDAC6 selectivity (A)/(B)” value turned out to be 85 and the half-inhibitory concentration (IC50) came to 60 nM.

In series [3], `CCc1nc2c(F)cc(/C=C/C(=O)NO)cc2c(=O)n1-c1c(C)cccc1C` [Compound 11, (E)-3-(3-(2,6-dimethylphenyl)-2-ethyl-8-fluoro-4-oxo-3,4-dihydroquinazolin-6-yl)-N-hydroxyacrylamide] showed a Cmax of 727 ng/mL and an area under the curve (AUC) of 7180 ng·h/mL. The same compound showed a 50% inhibitory concentration (IC50) at HDAC1 of 6900 nM. At HDAC6, the “HDAC6 selectivity (A)/(B)” value amounted to 43 and the half-maximal inhibitory concentration (IC50) is 159 nM.

In series [3], `Cc1ccccc1-n1c(C)nc2cc(F)c(/C=C/C(=O)NO)cc2c1=O` [Compound 44] gave a Cmax of 719 ng/mL and an AUC of 5720 ng·h/mL. For the same compound, at HDAC1, 2580 nM corresponded to half-maximal inhibition (IC50). Moreover, at HDAC6, the “HDAC6 selectivity (A)/(B)” value was found to be 129 and the IC50 was determined as 20 nM.

In series [3], `Cc1cccc(C)c1-n1c(C)nc2cc(F)c(/C=C/C(=O)NO)cc2c1=O` [Compound 1, (E)-3-(3-(2,6-dimethylphenyl)-7-fluoro-2-methyl-4-oxo-3,4-dihydroquinazolin-6-yl)-N-hydroxyacrylamide] returned a Cmax of 4130 ng/mL and an exposure (AUC) of 5830 ng·h/mL. The compound further gave a half-maximal inhibitory concentration (IC50) on HDAC1 of 3940 nM. Further, at HDAC6, the “HDAC6 selectivity (A)/(B)” value amounted to 328 and the half-maximal inhibitory concentration (IC50) came to 12 nM.

In series [3], `CCc1nc2cc(F)c(/C=C/C(=O)NO)cc2c(=O)n1-c1ccc(F)cc1C` [Compound 26, (E)-3-(2-ethyl-7-fluoro-3-(4-fluoro-2-methylphenyl)-4-oxo-3,4-dihydroquinazolin-6-yl)-N-hydroxyacrylamide] came in with a maximum concentration (Cmax) of 2680 ng/mL and an AUC of 12000 ng·h/mL. At HDAC1, this compound came in with an IC50 of 4320 nM. On HDAC6, the “HDAC6 selectivity (A)/(B)” value was determined as 180 and the 50% inhibitory concentration (IC50) turned out to be 24 nM.

In series [3], `CCc1nc2cc(F)c(/C=C/C(=O)NO)cc2c(=O)n1-c1cccc(C)c1C` [Compound 22, (E)-3-(3-(2,3-dimethylphenyl)-2-ethyl-7-fluoro-4-oxo-3,4-dihydroquinazolin-6-yl)-N-hydroxyacrylamide] showed a maximum concentration (Cmax) of 3330 ng/mL and an AUC of 9920 ng·h/mL. This compound showed a half-inhibitory concentration (IC50) at HDAC1 of 4240 nM. At HDAC6, the “HDAC6 selectivity (A)/(B)” value was found to be 77 and the half-inhibitory concentration (IC50) was 55 nM.

In general, Cmax refers to the peak of the concentration-time curve. What is called AUC is the area under the concentration-time curve, a measure of exposure. One may read the IC50 as the concentration at which inhibition is half-maximal.
